In ChEMBL document CHEMBL3232731, “Diterpene glycosides and polyketides from Xylotumulus gibbisporus” (J Nat Prod, 2014):
In brackets after ≈: the same amount, converted by molar mass.

Experiments:
RAW264.7 [1] = assay: Antiinflammatory activity in mouse RAW264.7 cells assessed as inhibition of LPS-induced nitric oxide production by spectrophotometric analysis; format: functional, cell-based
RAW264.7 [2] = assay: Cytotoxicity against mouse RAW264.7 cells by Alamar Blue assay; format: cell-based
Candida albicans [3] = assay: Antifungal activity against Candida albicans ATCC 18804 by NCCLS method; format: functional
Candida albicans [4] = assay: Antifungal activity against Candida albicans ATCC MYA-2876 by NCCLS method; format: functional
Saccharomyces cerevisiae = assay: Antifungal activity against Saccharomyces cerevisiae ATCC 2345 by NCCLS method; format: functional

Row | SMILES | IC50 (RAW264.7 [1]) | Activity (RAW264.7 [2]) | MIC (Candida albicans [3]) | MIC (Candida albicans [4]) | MIC (Saccharomyces cerevisiae)
1 | CO[C@H]1[C@@H](O)[C@H](O)[C@H](OC[C@@]23C[C@@H]4[C@H](C)CC[C@H]4[C@@]4(C=O)C[C@@H]2C(=O)C(=C(C)C)[C@@]34C(=O)O)O[C@@H]1C | 327 µM | Non-toxic |  |  | 
2 | N=C(NCCC[C@H](N)C(=O)O)N[N+](=O)[O-] [NITROARGININE] | 146 µM |  |  |  | 
3 | N=C(N)NN [PIMAGEDINE] | 22.3 µM |  |  |  | 
4 | CO[C@H]1[C@@H](O)[C@H](O)[C@H](OC[C@@]23C[C@@H]4[C@H](C)CC[C@H]4[C@@]4(C=O)CC2C=C(C(C)C)[C@@]34C(=O)O)O[C@@H]1C [SORDARIN] | 157 µM | Non-toxic | 64 µg/mL (≈ 130 µM) | 32 µg/mL (≈ 65 µM) | 32 µg/mL (≈ 65 µM)
